Results published in patent publication US20110060037A1, “USE OF NPY Y5 RECEPTOR ANTAGONISTS FOR THE PREVENTION OF PSYCHO-STIMULANT AND OPIOID ABUSE” (priority 2008, published 2011).
“Also recorded” adds a separate entry of the source.

Legend:
[1] = tested on: NMRI mice; assay: Cocaine-induced hyperactivity; type: in vivo
Source text: The apparatus for measuring locomotor hyperactivity consisted of 16 activity Plexiglas boxes (37×21×17 cm). Eight dual photocells placed throughout the length of each box, detected movement of the animals. A plate was placed on top of the box in order to keep the mice from jumping out during the sessions. Sawdust was placed in a thin layer on the floor of the box. All activity boxes were connected to an interface (SG 502, Med. Associates Inc., East Fairfield, Vt., USA), measuring each beam-break. A computer and activity software (Ellegaard Systems, DK) were used to record the results from each activity box.
In all activity experiments an i.p. injection of either vehicle or drug was administered 3-7 minutes before testing. The animal was then placed in an activity box and the activity was measured for 30 minutes. […]
Conditioned place preference data were analysed using repeated measure one-way ANOVA between days within each group on all four groups of both experiments. […] Post-conditioning test and reinstatement presented as percent of its own saline group were analysed with a one-way ANOVA followed by post-hoc LSD t-tests. Total crossings were analysed with a one-way ANOVA followed by post-hoc LSD t-tests. Data presented as 5 minutes intervals was analysed using repeated measures ANOVA with treatment as between subjects factor followed by LSD post-hoc t-test. […]

[2] = target: T1, Y5 receptor (Mus musculus, UniProt O70342); conditions: cited from earlier work
T1 construct: close to 80% Y5 receptor occupancy in the mouse brain has also been observed between one and four hours after oral administration; host or cells: mouse brain (in vivo, after oral dosing)
T1 sequence (O70342 1-466): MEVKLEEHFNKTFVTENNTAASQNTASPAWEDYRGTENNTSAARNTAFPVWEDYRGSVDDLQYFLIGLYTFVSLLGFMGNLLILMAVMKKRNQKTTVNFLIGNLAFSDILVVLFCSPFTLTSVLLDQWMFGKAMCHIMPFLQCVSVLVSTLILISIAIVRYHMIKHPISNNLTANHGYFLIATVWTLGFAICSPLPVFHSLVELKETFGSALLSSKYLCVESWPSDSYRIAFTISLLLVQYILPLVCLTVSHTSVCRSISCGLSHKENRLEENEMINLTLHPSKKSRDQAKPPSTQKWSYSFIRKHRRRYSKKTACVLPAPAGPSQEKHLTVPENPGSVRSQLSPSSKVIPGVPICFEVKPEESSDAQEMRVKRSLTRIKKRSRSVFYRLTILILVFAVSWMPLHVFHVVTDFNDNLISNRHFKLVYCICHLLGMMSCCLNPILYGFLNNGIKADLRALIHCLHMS

SMILES: CC1(C)CC(=O)C(C2C3=C(CC(C)(C)CC3=O)Oc3ccccc32)C(=O)C1 [L-152,804, 5,5-Dimethyl-2-(2,3,4,9-tetrahydro-3,3-dimethyl-1oxo-1H-xanthen-9-yl)-1,3-cyclohexanedione]
- cocaine-induced hyperactivity (locomotor activity, beam crossings) ([1]; L-152,804 10 mg/kg p.o. two hours prior to cocaine 10 mg/kg, 30 min observation and 5-min intervals, FIG. 7): appeared to be attenuated; also recorded: prevented a significant cocaine-induced increase in locomotor activity
- locomotor activity in saline i.p.-treated animals ([1]; L-152,804 10 mg/kg p.o. vs vehicle): No effect
- Y5 receptor occupancy in mouse brain ([2]; 2 h after oral administration of L-152,804): 80%
- Y5 receptor occupancy in the mouse brain ([2]; between one and four hours after oral administration of L-152,804): ~80%
